Assay results: PMC5440000 (Clinical Interventions in Aging, 2017)

Target: Aβ42 (Homo sapiens, UniProt P05067)
Test: Thioflavin T aggregation assay, […] h at […]°C
Type: biochemical

Aβ42, sequence (P05067 672-713): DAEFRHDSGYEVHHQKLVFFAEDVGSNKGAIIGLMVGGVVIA

With `CC1=C(/C=C/C(C)=C/C=C/C(C)=C/C=C/C=C(C)/C=C/C=C(C)/C=C/C2=C(C)C[C@@H](O)CC2(C)C)C(C)(C)C[C@H](O)C1` [zeaxanthin] the IC50 was 2290 nM.

`CC1=C(/C=C/C(C)=C/C=C/C(C)=C/C=C/C=C(C)/C=C/C=C(C)/C=C/C(=O)[C@]2(C)C[C@@H](O)CC2(C)C)C(C)(C)CCC1` [cryptocapsin] gave an IC50 of 1970 nM.
